Here are results for 9 compounds from patent US9329188B2, “Method for detecting invasive microvesicles derived from tumor cells” (University of Notre Dame, priority 2010, dated 2016).

In data set [1] the test system is ERK. The conditions noted are these: cells treated with 1-butanol. As for the experimental part: Studies have shown that ARF6 stimulates phospholipase D (PLD) activity (C. D'Souza-Schorey et al., Nat. Rev. Mol. Cell Biol. 7, 347-58 (2006)). […] Here, ARF6 regulated PLD activity and its involvement with ERK activation was tested. First, phospho-ERK levels upon PLD inactivation were examined. […] Next, primary alcohols were used to inhibit PLD, which results in the formation of phosphatidylalcohol at the expense of phosphatidic acid by replacing water.

Data set [2] concerns LOX cells. Particulars: cells expressing constitutively activated MEK; 1-butanol. An excerpt:
Next, the role of phospho-ERK levels in microvesicle shedding was investigated. Specifically, microvesicle shedding was examined in LOXARF6-GDP cells after phospho-ERK levels were restored, or after stimulating PLD activity through pathways independent of ARF6. […] Finally, the effect of 1-butanol on microvesicle shedding induced by expression of constitutively activated MEK was investigated.

Data set [3] has as its system parental LOX and LOXARF6-GTP cells. The experiment in a line: Microvesicle shedding: microvesicles released into media isolated and quantitated for protein, or surface microvesicles scored. Format: cell-based. As for the experimental part: Data from 5 independent experiments is plotted. Standard error bars are shown.
(§1) Standard error bars are shown.
Released microvesicles were isolated and quantitated for protein. The average of three independent experiments with standard error bars for each experimental condition is shown.
Parental LOX and LOXARF6-GTP were treated with 10 μM ML-7 for 2 hrs. Microvesicles released were isolated, quantitated for protein, and the data is shown as fold change in shedding relative to untreated LOX cells.
The total protein content of lysed microvesicles can be calculated, for example by using the Bradford assay (BioRad). This assay utilizes a spectroscopic analysis procedure to measure the concentration of protein in a solution.

Data set [4] deals with phospho-MLC. The experiment in a line: Phospho-MLC in cell lysates by western blotting, parental LOX and LOXARF6-GTP cells. Format: cell-based. As for the experimental part: Additional lanes on the immunoblot between lanes 2 and 3 were spliced out. Band density was measured by densitometric scanning.
(§2) Cell lines as indicated were treated with ML-7, and cell lysates were probed for phospho-MLC and α-tubulin by Western blotting. Band density was measured by densitometric scanning. Fold increase in the ratio of phospho-MLC to α-tubulin in ML-7 treated cells relative to untreated cells is shown.
Lysates of parental LOX and LOXARF6-GTP treated with Go6976 […] for 2 hrs at 37° C. were probed for phospho-MLC and α-tubulin by Western blotting.

Data set [5] deals with phospho-MLC. The experiment in a line: Phospho-MLC in cell lysates by western blotting, LOXARF6-GDP cells. Format: cell-based. The conditions noted are these: Go6976 10 μM, ML-7 10 μM, U0126 30 μM for 2 hrs at 37° C. As for the experimental part: Cell lysates were probed for phospho-MLC, phospho-ERK and α-tubulin by western blotting.
as §2
A general note: In western blotting, separated proteins are transferred to a membrane and probed.

For data set [6], the system named is PC3 and SW480 cell lines. The conditions noted are these: MEK inhibition.
Source text: Vesicle shedding was examined in other tumor cell lines; SW480, a colon carcinoma cell line, PC3, a prostate adenocarcinoma cell line, and MDA-MB-231, an invasive breast tumor cell line.
For data set [7], the system named is LOXARF6-GDP cells. Put plainly: Microvesicle shedding, cells with microvesicles at the cell surface scored. Particulars: LOXARF6-GDP cells treated with propranolol or atenolol. Format: cell-based.
Source text: as §1
The treated cells were visualized, and those with microvesicles present at the cell surface were scored as described above.

Data set [8] deals with phospho-ERK. The experiment in a line: Phospho-ERK and total-ERK in cell lysates, western blotting with densitometry. Format: cell-based. Particulars: LOXARF6-GDP cells; propranolol (0.1 mM), atenolol (10 uM). An excerpt: The treated cells were probed for phospho-ERK and total-ERK. Band intensities were quantified by densitometry. The average of 3 independent experiments is plotted and standard error bars are shown.

The test system of data set [9] is cleaved caspase 3. The experiment in a line: Cleaved caspase 3 as sign of apoptosis. Format: cell-based. Particulars: cells treated with okadaic acid, compared with LOX cells expressing mutant ARF6.
Setting [10] is: LOX cells treated with blebbistatin or latrunculin A.

Turning to `CCCCO` [1-butanol], the ERK activation result in data set [1] is recorded as “inhibits”. In [2], the “microvesicle shedding induced by constitutively activated MEK” value is recorded as “little to no effect”. The microvesicle shedding entry in data set [3] (LOX cells, 0.3% 1-butanol for 30 min, cells with eight or more surface microvesicles scored) is listed as “inhibits”.
`Cn1c2ccccc2c2c3c(c4c5ccccc5n(CCC#N)c4c21)CNC3=O` [Go6976]: the phospho-MLC levels entry in [4] (Go6976 for 2 hrs at 37° C.) is “no decrease”. Besides, the “phospho-MLC levels / MLC phosphorylation” value in data set [5] was “decreased”.
As to `O=S(=O)(c1cccc2c(I)cccc12)N1CCCNCC1` [ML-7], the MLC phosphorylation result in data set [4] (10 μM ML-7 for 2 hrs) is “blocked”. Also, the microvesicle shedding entry in [3] (parental LOX and LOXARF6-GTP cells, 10 μM ML-7 for 2 hrs) was “blocks”. For the same compound, the “phospho-MLC levels / MLC phosphorylation” value in [5] (listed as ML7) is “little to no effect”.
As to `N#CC(=C(/N)Sc1ccccc1N)/C(C#N)=C(\N)Sc1ccccc1N` [U0126], the microvesicle shedding entry in [6] is reported as “blocked microvesicle shedding”. For the same compound, in [4] (U0126 (30 μM)), the phospho-MLC levels entry is listed as “inhibition of phospho-MLC was evident”. Moreover, in [3], the “basal as well as ARF6-GTP enhanced microvesicle shedding” value is listed as “significant inhibition”. Also, the “phospho-MLC levels / MLC phosphorylation” value in [5] is reported as “no inhibition”.
As to `CC(C)NCC(O)COc1ccc(CC(N)=O)cc1` (centres unmarked) [atenolol], the “microvesicle shedding / release” value in [7] was “did not have any effect”. Also, the phospho-ERK levels result in [8] is given as “did not have any effect”.
Consider `Cc1ccc2c(c1)C(=O)C1(O)CCN(c3ccccc3)C1=N2` (centres unmarked) [blebbistatin], for which, in data set [3] (LOX cells in the presence of blebbistatin), the microvesicle formation entry is reported as “microvesicles do not form”. In addition, in data set [3] (setting [10]), the microvesicle shedding entry is “profoundly affected microvesicle shedding”.
As for `C/C1=C/C(=O)O[C@@H]2C[C@@H](CC[C@H](C)/C=C\C=C\CC1)O[C@@](O)([C@@H]1CSC(=O)N1)C2` [latrunculin A], in data set [3] (setting [10]), the microvesicle shedding result is “profoundly affected microvesicle shedding”. Moreover, the “treated cells exhibiting clustered microvesicles at the cell surface” value in data set [3] (LOX cells treated with latrunculin A) is given as 85-90%. For the same compound, the release of microvesicles result in [3] (parental LOX and LOXARF6-GTP cells, 2 μM Latrunculin A for 45 min, released microvesicles quantitated for protein) is “inhibited”.
In the case of `C=C1[C@@H](O)[C@@H]2O[C@]3(CC[C@H](/C=C/[C@@H](C)[C@@H]4CC(C)=C[C@@]5(O[C@H](C[C@@](C)(O)C(=O)O)CC[C@H]5O)O4)O3)CC[C@H]2O[C@@H]1[C@@H](O)C[C@H](C)[C@H]1O[C@@]2(CCCCO2)CC[C@H]1C` [okadaic acid], the “cleaved caspase 3 in cells” value in data set [9] was “present in a higher proportion of the cells”.
Consider `CC(C)NCC(O)COc1cccc2ccccc12` (centres unmarked) [propranolol], for which the results for the “microvesicle shedding / release” value in [7] and in [7] (listed as Propranolol) were “induced microvesicle shedding” and “restored vesicle shedding”, respectively. Besides, the phospho-ERK levels result in data set [8] was “restored phospho-ERK levels”.
